Measured values as given in ChEMBL document CHEMBL2331543, “Optimization of heterocyclic substituted benzenesulfonamides as novel carbonic anhydrase IX inhibitors and their structure activity relationship” (Eur J Med Chem, 2013).

What was measured:
Carbonic anhydrase 2 = Carbonic anhydrase 2 (Homo sapiens, UniProt P00918); experiment: Inhibition of recombinant human carbonic anhydrase 2 after 15 mins by stopped flow CO2 hydration assay
Carbonic anhydrase 9 = Carbonic anhydrase 9 (Homo sapiens, UniProt Q16790); experiment: Inhibition of recombinant human carbonic anhydrase 9 after 15 mins by stopped flow CO2 hydration assay
Carbonic anhydrase 1 = Carbonic anhydrase 1 (Homo sapiens, UniProt P00915); experiment: Inhibition of recombinant human carbonic anhydrase 1 after 15 mins by stopped flow CO2 hydration assay
Sequence of Carbonic anhydrase 1 (P00915 whole entry): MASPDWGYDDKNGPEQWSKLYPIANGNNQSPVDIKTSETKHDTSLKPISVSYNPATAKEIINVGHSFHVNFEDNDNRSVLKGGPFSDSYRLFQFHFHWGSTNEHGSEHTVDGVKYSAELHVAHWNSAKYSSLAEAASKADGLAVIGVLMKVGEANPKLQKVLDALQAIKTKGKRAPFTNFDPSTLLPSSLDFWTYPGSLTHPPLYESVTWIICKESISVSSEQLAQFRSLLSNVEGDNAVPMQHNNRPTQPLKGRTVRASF

Homo sapiens [1] = species on record: Homo sapiens; experiment: Selectivity ratio of IC50 for recombinant human carbonic anhydrase 2 to IC50 for recombinant human carbonic anhydrase 9
Homo sapiens [2] = species on record: Homo sapiens; experiment: Selectivity ratio of IC50 for recombinant human carbonic anhydrase 1 to IC50 for recombinant human carbonic anhydrase 9

IC50 (Carbonic anhydrase 2) [nM] | IC50 (Carbonic anhydrase 9) [nM] | IC50 (Carbonic anhydrase 1) [nM] | Ratio IC50 (Homo sapiens [1]) | Ratio IC50 (Homo sapiens [2]) | SMILES
61.8 | > 690 | 220 | – | – | COc1cccc(-c2nnc(Nc3cccc(S(N)(=O)=O)c3)c3ccccc23)c1
> 10000 | > 3900 | > 10000 | – | – | NS(=O)(=O)c1ccc(Nc2nnc(-c3ccccc3)c3ccccc23)cc1
147 | 28.3 | > 10000 | 5.3 | > 100 | Nc1ccc(Nc2nnc(-c3cccc(S(N)(=O)=O)c3)c3ccccc23)cc1
26.8 | 3.3 | 85.7 | 8.1 | 25.7 | Cc1cc(-c2nnc(Nc3ccc(S(N)(=O)=O)cc3)c3ccccc23)ccc1S(N)(=O)=O
> 10000 | > 690 | > 10000 | – | – | NS(=O)(=O)c1cccc(Nc2nnc(-c3ccc(Cl)cc3)c3ccccc23)c1
> 10000 | > 690 | > 10000 | – | – | NS(=O)(=O)c1cccc(Nc2nnc(-c3ccccc3)c3ccccc23)c1
> 10000 | 29 | > 10000 | > 100 | > 100 | CC(C)(C)c1ccc(Nc2nnc(-c3cccc(S(N)(=O)=O)c3)c3ccccc23)cc1
547 | 0.48 | > 10000 | 1140 | > 10000 | Cc1ccc(-c2nnc(Nc3ccc(S(N)(=O)=O)cc3)c3ccccc23)cc1S(N)(=O)=O
> 10000 | > 3900 | > 10000 | – | – | NS(=O)(=O)c1ccc(Nc2nnc(-c3ccc(C(F)(F)F)cc3)c3ccccc23)cc1
> 10000 | > 3900 | > 10000 | – | – | NS(=O)(=O)c1ccc(Nc2nnc(-c3ccc(Cl)cc3)c3ccccc23)cc1
455 | 18.5 | > 10000 | 24.5 | > 1000 | NS(=O)(=O)c1ccc(Nc2nnc(-c3cccc(S(N)(=O)=O)c3)c3ccccc23)cc1
> 10000 | 3930 | > 10000 | – | – | COc1cccc(-c2nnc(Nc3ccc(S(N)(=O)=O)cc3)c3ccccc23)c1
> 10000 | 690 | > 10000 | – | – | NS(=O)(=O)c1cccc(Nc2nnc(-c3ccc(C(F)(F)F)cc3)c3ccccc23)c1
> 10000 | > 690 | > 10000 | – | – | COc1ccc(-c2nnc(Nc3cccc(S(N)(=O)=O)c3)c3ccccc23)cc1
